Laboratory results taken from patent US4428942A, “Analogs of somatostatin” (The Salk Institute for Biological Studies, priority 1982, dated 1984).
Where two headings read alike, the source gives them in different places. Bridge positions count the residues as written; N and C are the ends. Square brackets hold non-standard residues; d marks the D form. Peptide text beside a SMILES is read from it.

How the values were obtained:
[1] = system: secretion of insulin; settings: in vivo
Description: (§1) In vivo experiments are carried out with the analogs, using the procedure described in Brown et al., Metabolism (1976) Vol. 25, pp. 1501-1503, to determine the potency, relative to somatostatin-14, to inhibit the secretion of glucagon and insulin stimulated by the administration of arginine to groups of six rats.

[2] = system: secretion of glucagon; parameters: species or system rats; settings: in vivo
Description: as §1

[3] = system: isolated rabbit ileum
Description: The analogs are tested in vitro in isolated rabbit ileum using the modified Ussing chamber technique, as described in Amer. J. of Physiol., 225:776-780 (1973). Unidirectional chloride fluxes are determined and used to characterize bi-directional fluxes following the addition of an SS-analog. Changes are measured with varying concentrations, and the potency to inhibit ion transport is quantitated and expressed as a percentage of the potency of SS-14.

[4] = system: release of growth hormone induced by isobutyl methyl xanthine in pituitary cells; assay type: cell-based, rat
Description: To determine the effectiveness of the peptides to inhibit the release of growth hormone, in vitro radioimmunoassays are carried out using the SS analogs in side-by-side comparison with equimolar concentrations of somatostatin-14 having a known effectiveness to inhibit the release of growth hormone induced by the application of isobutyl methyl xanthine to pituitary cells. Cultures are used which include cells of rat pituitary glands removed some four to five days previously in a system that minimizes enzymatic degradation, generally following the procedure set forth in Vale et al., Methods in Enzymology, Hormones and Cyclic Nucleotides (1975) Vol. 37, p. 82. Both cultures of a defined standard medium and cultures which are considered optimal for the secretion of growth hormone, as a result of having additions of either 2% or 10% of serum from a foetal calf, are used for the comparative testing.

[5] = cultured rat pituitary cells, isobutyl methyl xanthine-induced release, SS-14 = 100
[6] = arginine-stimulated, rats, SS-14 = 100
[7] = isolated rabbit ileum, Ussing chamber, chloride fluxes, SS-14 = 100

Compound	Insulin (potency to inhibit insulin secretion relative to SS-14) ([1]; rat) [%]	Glucagon (potency to inhibit glucagon secretion relative to SS-14) ([2]; rat) [%]	Ion Transport (potency to inhibit ion transport expressed as a percentage of the potency of SS-14) [3] [%]	GH (potency for the inhibition of GH release relative to SS-14) [4] [%]	GH (potency for the inhibition of GH release relative to SS-14) [4, 5] [%]	Insulin (potency to inhibit insulin secretion relative to SS-14) [1, 6] [%]	Ion Transport (potency to inhibit ion transport expressed as a percentage of the potency of SS-14) [3, 7] [%]	Glucagon (potency to inhibit glucagon secretion relative to SS-14) [2, 6] [%]
C[C@H](N)C(=O)NCC(=O)N[C@H]1CSSC[C@@H](C(=O)O)NC(=O)[C@H](CO)NC(=O)[C@H]([C@@H](C)O)NC(=O)[C@H](CCCNC(=N)N)NC(=O)[C@H]([C@@H](C)O)NC(=O)[C@H](CCCCN)NC(=O)[C@H](Cc2c[nH]c3ccccc23)NC(=O)[C@H](Cc2ccccc2)NC(=O)[C@H](Cc2ccccc2)NC(=O)[C@H](CC(N)=O)NC(=O)[C@H](CCCCN)NC1=O [Peptide 2, [Arg^11]--SS] (H-AGCKNFFWKTRTSC-OH; disulfide 3-14)	142	< 1	291	–	–	–	–	–
C[C@@H](O)[C@@H]1NC(=O)[C@H](Cc2c[nH]c3ccccc23)NC(=O)[C@H]([C@@H](C)O)NC(=O)[C@H](CCCCN)NC(=O)[C@H](Cc2c[nH]c3ccccc23)NC(=O)[C@H](Cc2ccccc2)NC(=O)[C@H](Cc2ccccc2)NC(=O)[C@H](CC(N)=O)NC(=O)[C@H](CCCCN)NC(=O)[C@@H](N)CSSC[C@@H](C(=O)O)NC(=O)[C@H](CO)NC1=O [Peptide 3, des-AA^1,2,[Trp^11]--SS] (H-CKNFFWKTWTSC-OH; disulfide 1-12)	–	–	405	–	–	–	–	–
C[C@@H](O)[C@@H]1NC(=O)[C@H](CCCCN)NC(=O)[C@@H](Cc2c[nH]c3ccccc23)NC(=O)[C@H](Cc2ccccc2)NC(=O)[C@H](Cc2ccccc2)NC(=O)[C@@H](N)CSSC[C@@H](C(=O)O)NC(=O)[C@H](CO)NC(=O)[C@H](Cc2c[nH]c3ccccc23)NC1=O [Peptide 4, des-AA^1,2,4,5,12,[D-Trp^8,Trp^11]--SS] (H-CFF[dW]KTWSC-OH; disulfide 1-9)	–	–	37	–	–	–	–	–
C[C@H](N)C(=O)NCC(=O)N[C@H]1CSSC[C@@H](C(=O)O)NC(=O)[C@H](CO)NC(=O)[C@H]([C@@H](C)O)NC(=O)[C@H](C)NC(=O)[C@H]([C@@H](C)O)NC(=O)[C@H](CCCCN)NC(=O)[C@H](Cc2c[nH]c3ccccc23)NC(=O)[C@H](Cc2ccccc2)NC(=O)[C@H](Cc2ccccc2)NC(=O)[C@H](CC(N)=O)NC(=O)[C@H](CCCCN)NC1=O [Peptide 5, [Ala^11]--SS] (H-AGCKNFFWKTATSC-OH; disulfide 3-14)	< 10	–	52	3	–	–	–	–
C[C@@H](O)[C@@H]1NC(=O)[C@H](CCCCN)NC(=O)[C@@H](Cc2c[nH]c3ccccc23)NC(=O)[C@H](Cc2ccccc2)NC(=O)[C@H](Cc2ccccc2)NC(=O)[C@@H](N)CSSC[C@@H](C(=O)O)NC(=O)[C@H](CO)NC(=O)[C@H](Cc2ccccc2)NC1=O [Peptide 6, des-AA^1,2,4,5,12,[D-Trp^8]--SS] (H-CFF[dW]KTFSC-OH; disulfide 1-9)	70	20	257	45	–	–	–	–
C[C@H](N)C(=O)NCC(=O)N[C@H]1CSSC[C@@H](C(=O)O)NC(=O)[C@H](CO)NC(=O)[C@H](Cc2ccccc2)NC(=O)[C@H]([C@@H](C)O)NC(=O)[C@H](CCCCN)NC(=O)[C@H](Cc2c[nH]c3ccccc23)NC(=O)[C@H](Cc2ccccc2)NC(=O)[C@H](Cc2ccccc2)NC(=O)[C@H](CC(N)=O)NC(=O)[C@H](CCCCN)NC1=O [Peptide 7, des-Thr^12 --SS] (H-AGCKNFFWKTFSC-OH; disulfide 3-13)	< 1	< 1	21	2	–	–	–	–
C[C@H](N)C(=O)NCC(=O)N[C@H]1CSSC[C@@H](C(=O)O)NC(=O)[C@H](CO)NC(=O)[C@H]([C@@H](C)O)NC(=O)[C@H]([C@@H](C)O)NC(=O)[C@H](CCCCN)NC(=O)[C@H](Cc2c[nH]c3ccccc23)NC(=O)[C@H](Cc2ccccc2)NC(=O)[C@H](Cc2ccccc2)NC(=O)[C@H](CC(N)=O)NC(=O)[C@H](CCCCN)NC1=O [Peptide 8, des-Phe^11 --SS] (H-AGCKNFFWKTTSC-OH; disulfide 3-13)	< 1	< 1	34	2	–	–	–	–
C[C@@H](O)[C@@H]1NC(=O)[C@H](Cc2ccccc2)NC(=O)[C@H]([C@@H](C)O)NC(=O)[C@H](CCCCN)NC(=O)[C@H](Cc2c[nH]c3ccccc23)NC(=O)[C@H](Cc2ccccc2)NC(=O)[C@H](Cc2ccccc2)NC(=O)[C@H](CC(N)=O)NC(=O)[C@H](CCCCN)NC(=O)[C@@H](N)CSSC[C@@H](C(=O)O)NC(=O)[C@H](CO)NC1=O [Peptide 9, des-Ala^1,Gly^2 --SS] (H-CKNFFWKTFTSC-OH; disulfide 1-12)	–	–	–	–	60	61	231	–
C[C@H](N)C(=O)NCC(=O)N[C@H]1CSSC[C@@H](C(=O)O)NC(=O)[C@H](CO)NC(=O)[C@H]([C@@H](C)O)NC(=O)[C@H](Cc2c[nH]cn2)NC(=O)[C@H]([C@@H](C)O)NC(=O)[C@H](CCCCN)NC(=O)[C@H](Cc2c[nH]c3ccccc23)NC(=O)[C@H](Cc2ccccc2)NC(=O)[C@H](Cc2ccccc2)NC(=O)[C@H](CC(N)=O)NC(=O)[C@H](CCCCN)NC1=O [Peptide 10, [His^11]--SS] (H-AGCKNFFWKTHTSC-OH; disulfide 3-14)	< 1	< 1	48	–	–	–	–	–
C[C@H](N)C(=O)NCC(=O)N[C@H]1CSSC[C@@H](C(=O)O)NC(=O)[C@H](CO)NC(=O)[C@H]([C@@H](C)O)NC(=O)[C@H](CCC(=O)O)NC(=O)[C@H]([C@@H](C)O)NC(=O)[C@H](CCCCN)NC(=O)[C@H](Cc2c[nH]c3ccccc23)NC(=O)[C@H](Cc2ccccc2)NC(=O)[C@H](Cc2ccccc2)NC(=O)[C@H](CC(N)=O)NC(=O)[C@H](CCCCN)NC1=O [Peptide 12, [Glu^11]--SS] (H-AGCKNFFWKTETSC-OH; disulfide 3-14)	< 1	< 1	9	–	–	–	–	–
C[C@H](N)C(=O)NCC(=O)N[C@H]1CSSC[C@@H](C(=O)O)NC(=O)[C@H](CO)NC(=O)[C@H]([C@@H](C)O)NC(=O)[C@H](Cc2ccccc2)NC(=O)[C@H]([C@@H](C)O)NC(=O)[C@H](CCCCN)NC(=O)[C@H](Cc2c[nH]c3ccccc23)NC(=O)[C@H](Cc2ccccc2)NC(=O)[C@H](Cc2ccccc2)NC(=O)[C@H](CCCCN)NC1=O [Peptide 13, des-Asn^5 --SS] (H-AGCKFFWKTFTSC-OH; disulfide 3-13)	–	–	–	–	4	10	11	< 1
des-AA^1,2,[β-Nal^11 ]--SS [Peptide 11]	–	–	–	–	–	–	107	–
